Reference: article PMC8000724, “Trans-Epithelial Transport, Metabolism, and Biological Activity Assessment of the Multi-Target Lupin Peptide [sequence] (P5) and Its Metabolite [sequence] (P5-Met)” (Nutrients, 2021)
Like-named read-outs stand apart in the source and are kept apart here.

How the values were obtained:
[1] = system: differentiated Caco-2 cells; settings: cited from earlier work
Method: From a physiological point of view, the dynamic equilibrium between the transport and degradation of bioactive peptides is crucially important. […] Indeed, the transport is more efficient and its degradation less extensive when P5 is incubated in the presence of peptides P3 and P7. It is important to note, however, that P5 and P7 have completely different behaviors, since the transport rate of P5 tested alone is 1.8 ...

[2] = system: LDLR on HepG2 cell surface; test: In-cell Western (ICW) assay, LDLR localized on HepG2 cell surface; format: cell-based, human; settings: PCSK9 alone 4 µg/mL, 2 h, mean ± SD
Method: For the experiments, a total of 3 × 10^4 HepG2 cells/well were seeded in 96-well plates. The following day, cells were washed with PBS and then starved overnight (O/N) in DMEM without FBS and antibiotics. After starvation, HepG2 cells were treated with 4.0 μg/mL PCSK9-WT and 4.0 μg/mL PCSK9 + peptides P5 and/or P5-met (50 µM) and vehicle (H2O) for 2 h at 37 °C under 5% CO2 atmosphere. Subsequently, they were fixed in 4% paraformaldehyde for 20 min at room temperature (RT). Cells were washed 5 times with 100 µL of PBS/well (each wash was for 5 min at RT) and the endogenous peroxides activity quenched adding 3% H2O2 for 20 min at RT. Non-specific sites were blocked with 100 µL/well of 5% bovine serum albumin (BSA, Sigma) in PBS for 1.5 h at RT. LDLR primary antibody solution (1:3000 in 5% BSA in PBS, 25 µL/well) was incubated O/N at +4 °C. Subsequently, the primary antibody solution was discarded and each sample was washed 5 times with 100 µL/well of PBS (each wash was for 5 min at RT). Goat anti-rabbit Ig-HRP secondary antibody solution (Santa Cruz) (1:6000 in 5% BSA in PBS, 50 µL/well), was added and incubated 1 h at RT. The secondary antibody solution was washed 5 times with 100 µL/well of PBS (each wash for 5 min at RT). Freshly prepared TMB substrate (Pierce, 100 µL/well) was added and the plate was incubated at RT until desired color was developed. The reaction was stopped with 2 M H2SO4 and then the absorbance at 450 nm was measured using the microplate reader Synergy H1 (Winooski, VT, USA). After the read, cells were stained by adding 1× Janus Green stain, incubating for 5 min at RT. The dye was removed and the sample washed 5 times with water. Afterward 100 µL 0.5 M HCl for well were added and incubated for 10 min. After 10 seconds shaking, the OD at 595 nm was measured using the microplate reader Synergy H1 (Winooski, VT, USA).

[3] = system: HepG2 cells; test: Fluorescent LDL uptake by HepG2 cells; format: cell-based, human; settings: PCSK9 alone 4 µg/mL, 2 h; mean ± SD
Method: HepG2 cells (3 × 10^4/well) were seeded in 96-well plates and kept in complete growth medium for 2 days before treatment. The third day, cells were washed with PBS and then starved overnight (O/N) in DMEM without FBS and antibiotics. After starvation, they were treated with 4.0 μg/mL PCSK9 and 4.0 μg/mL PCSK9 + P5 and P5-met peptides (50.0 µM), and vehicle (H2O) for 2 h with at 37 °C under 5% CO2 atmosphere. At the end of the treatment, the culture medium was replaced with 50 μL/well LDL-DyLight™ 550 working solution (Cayman Chemical Company, Ann Arbor, MI, USA) prepared in DMEM without FBS and antibiotics. The cells were additionally incubated for 2 h at 37 °C and then the culture medium was aspirated and replaced with PBS (100 μL/well). The degree of LDL uptake was measured using the Synergy H1 fluorescent plate reader (Winooski, VT, USA) (excitation and emission wavelengths 540 and 570 nm, respectively). Fluorescent LDL-uptake was finally assessed following optimized protocol.

Substance	Transport rate across Caco-2 monolayer ([1]; in mixture)	Transport rate across Caco-2 monolayer ([1]; tested alone)	Decrease of LDLR protein levels on HepG2 cell surface versus the control cells [2] [%]	Reduction of ability of HepG2 cells to uptake fluorescent LDL versus untreated cells [3] [%]
LTFPGSAED [Peptide P7, lupin peptide used in mixture with P5 in the transport experiments]	1.98 ± 0.21 ng/(mL × min)	4.2 ± 0.6 ng/(mL × min)		
PCSK9: proprotein convertase subtilisin/kexin type-9 protein added to HepG2 cells at 4.0 μg/mL			24.7 ± 1.9	43.5 ± 9.7
